Data taken from patent US6342508B1, “N-hydroxy-2-(Alkyl,Aryl or Heteroaryl sulfanyl, sulfinyl or sulfonyl) 3-substituted alkyl, aryl or heteroarylamides as matrix metalloproteinase inhibitors” (American Cyanamid Company, priority 1997, dated 2002).

target: MMP 13 (Homo sapiens, UniProt P45452); test: MMP 13 inhibition (HTS); format: biochemical; details: 36 nM

Compared with `CCCCCCC(Sc1nc2ccccc2o1)C(=O)NO` (centres unmarked) [Example 169, 2-(2-Benzooxazol-2-ylsulfanyl)-octanoic acid hydroxyamide], `CCCCCCC(Sc1nc2ccccc2s1)C(=O)NO` (centres unmarked) [Example 170, 2-(2-Benzothiazol-2-ylsulfanyl)-octanoic acid hydroxyamide] is higher in “MMP 13 % inhibition at 36 nM (HTS)” value: 28% for the first, 32% for the second.

Going from `CCCCCCC(C(=O)NO)[S+]([O-])c1nc2ccccc2[nH]1` (centres unmarked) [Example 177, 2-(2-Benzimidazol-2-ylsulfinyl)-octanoic acid hydroxyamide] to `CCCCCCC(C(=O)NO)S(=O)(=O)c1[nH]c2ccccc2[n+]1[O-]` (centres unmarked) [Example 181, 2-(3-Oxy-1H-benzimidazole-2-sulfonyl)-octanoic acid hydroxyamide], the “MMP 13 % inhibition at 36 nM (HTS)” value rises from 5% to 6%.

Compared with `CCCCCCC(C(=O)NO)S(=O)(=O)CCc1cccc[n+]1[O-]` (centres unmarked) [Example 183, 2-[2-(1-Oxy-pyridin-2-yl)-ethanesulfonyl]-octanoic acid hydroxyamide], `CCCCCCC(Sc1ccc(OCc2ccccc2)cc1)C(=O)NO` (centres unmarked) [Example 199, 2-(^4-Benzyloxy-phenylsulfanyl)-octanoic acid hydroxyamide] is lower in “MMP 13 % inhibition at 36 nM (HTS)” value: −6% for the first, −10% for the second.

same assay, conditions: 0.2 μM

First: CCCCCCCCC(C(=O)NO)[S+]([O-])c1ccc([S+](C)[O-])cc1 (centres unmarked) [Example 144, 2-(4-methanesulfinyl-benzenesulfinyl)decanoic acid hydroxamide]
Second: CCCCCCCCC(C(=O)NO)S(=O)(=O)c1ccc(S(C)(=O)=O)cc1 (centres unmarked) [Example 145, 2-(4-methanesulfonyl-benzenesulfonyl)decanoic acid hydroxamide]
The “MMP 13 % inhibition at 0.2 μM (HTS)” value of the first is lower: 38% for the first, 45% for the second.

Going from `CSc1ccc(SC(COCc2ccccc2)C(=O)NO)cc1` (centres unmarked) [Example 146, 3-benzyloxy-N-hydroxy-2-(4-methanesulfanyl-benzenesulfanyl)-propionamide] to `O=C(NO)C(Cc1cnc[nH]1)Sc1ccccc1Br` (centres unmarked) [Example 152, 2-(2-bromo-benzenesulfanyl)-N-hydroxy-3-(3H-imidazol-4-yl)-propionamide], the “MMP 13 % inhibition at 0.2 μM (HTS)” value falls from 68% to 9%.

Going from `N=C(N)NCCCC(Sc1ccccc1Br)C(=O)NO` (centres unmarked) [Example 157, 2-(2-Bromosulfanyl)-5-guanidino-pentanoic acid hydroxyamide] to `N=C(N)NCCCC(C(=O)NO)[S+]([O-])c1ccccc1Br` (centres unmarked) [Example 158, 2-(2-Bromosulfinyl)-5-guanidino-pentanoic acid hydroxyamide], the “MMP 13 % inhibition at 0.2 μM (HTS)” value rises from 19% to 33%.

First: N=C(N)NCCCC(C(=O)NO)S(=O)(=O)c1ccccc1Br (centres unmarked) [Example 159, 2-(2-Bromosulfonyl)-5-guanidino-pentanoic acid hydroxyamide]
Second: CCCCCCC(Sc1nc2ccccc2[nH]1)C(=O)NO (centres unmarked) [Example 168, 2-(2-Benzimidazol-2-ylsulfanyl)-octanoic acid hydroxyamide]
The “MMP 13 % inhibition at 0.2 μM (HTS)” value of the first is higher: 49% for the first, 21% for the second.

First: CCCCCCC(Sc1cc(Cl)ccc1Cl)C(=O)NO (centres unmarked) [Example 160, 2-(2,5-dichlorobenzenesulfanyl)-octanoic Acid Hydroxyamide]
Second: CCCCCCC(Sc1cccc(OC)c1)C(=O)NO (centres unmarked) [Example 162, 2-(3-Methoxybenzenesulfanyl)-octanoic acid hydroxyamide]
The “MMP 13 % inhibition at 0.2 μM (HTS)” value of the first is higher: 14% for the first, 13% for the second.

`CCCCCCC(Sc1ccc(OC)c(OC)c1)C(=O)NO` (centres unmarked) [Example 165, 2-(3,4-Dimethoxybenzenesulfanyl)-octanoic acid hydroxyamide] was tested, and the “MMP 13 % inhibition at 0.2 μM (HTS)” value was 71%.
